Consider two compounds from patent publication US10021877B2, “Substituted 5-hydroxy-2,3-diphenylpentanonitrile derivatives, processes for their preparation and their use as herbicides and/or plant growth regulators” (BAYER CROPSCIENCE AKTIENGESELLSCHAFT, priority 2013, dated 2018).

For this test, the system named is PHBPU=Pharbitis purpurea. Briefly: Biological tests (herbicidal action) against PHBPU. In kind it is in vivo. As to conditions: application rate 320 g/ha. The source says: Seeds of monocotyledonous and dicotyledonous weed plants and crop plants were placed in wood-fibre pots in sandy loam and covered with soil. The compounds (I) according to the invention, formulated in the form of wettable powders (WP), were then applied as aqueous suspension or emulsion at a water application rate of 600 l/ha (converted) with the addition of 0.2% of wetting agent to the surface of the covering soil.
After the treatment, the pots were placed in a greenhouse and kept under good growth conditions for the test plants. After about 3 weeks, the effect was scored visually in comparison with untreated controls as percentages. For example, 100% activity=the plants have died, 50% herbicidal activity or damage=the plants have been reduced by 50% or the plant mass has been reduced by 50%, 0% activity=like control plants.
Seeds of monocotyledonous and dicotyledonous weeds and crop plants were placed in sandy loam in wood-fibre pots, covered with soil and cultivated in a greenhouse under good growth conditions. […]
What was determined was the respective herbicidal activity, in each case at the same point in time after application of the formulation in question. i.e. the damage to the respective harmful plant in %.

On to `CC(=O)OCCC(c1cc(F)ccc1F)C(C#N)c1ccc(F)c(Br)c1` (mixture of isomers) [Ibb52], for which the “herbicidal activity against PHBPU” value is given as 100%.

For `N#C[C@@H](c1cccc(F)c1)[C@@H](CCO)c1ccc(Cl)cc1` [threo-1-Iba354], the “herbicidal activity against PHBPU” value is recorded as 80%.
